Assay results reported in PMC8476755 (Frontiers in Chemistry, 2021).
Substitutions are numbered along the chain they refer to. Blank lines part the entries; values can stand above or below the compound they belong to.

What was measured:
BGT1 [1] = biological target: T1, BGT1 (Homo sapiens, UniProt P48065); assay: [3H]GABA uptake assay, single concentration screening; format: cell-based; settings: read-out: Percentage inhibition of [3H]GABA uptake at BGT1, 100 µM test compound; n = 2
T1 construct: expressed in transfected cells
T1 sequence (P48065 1-614): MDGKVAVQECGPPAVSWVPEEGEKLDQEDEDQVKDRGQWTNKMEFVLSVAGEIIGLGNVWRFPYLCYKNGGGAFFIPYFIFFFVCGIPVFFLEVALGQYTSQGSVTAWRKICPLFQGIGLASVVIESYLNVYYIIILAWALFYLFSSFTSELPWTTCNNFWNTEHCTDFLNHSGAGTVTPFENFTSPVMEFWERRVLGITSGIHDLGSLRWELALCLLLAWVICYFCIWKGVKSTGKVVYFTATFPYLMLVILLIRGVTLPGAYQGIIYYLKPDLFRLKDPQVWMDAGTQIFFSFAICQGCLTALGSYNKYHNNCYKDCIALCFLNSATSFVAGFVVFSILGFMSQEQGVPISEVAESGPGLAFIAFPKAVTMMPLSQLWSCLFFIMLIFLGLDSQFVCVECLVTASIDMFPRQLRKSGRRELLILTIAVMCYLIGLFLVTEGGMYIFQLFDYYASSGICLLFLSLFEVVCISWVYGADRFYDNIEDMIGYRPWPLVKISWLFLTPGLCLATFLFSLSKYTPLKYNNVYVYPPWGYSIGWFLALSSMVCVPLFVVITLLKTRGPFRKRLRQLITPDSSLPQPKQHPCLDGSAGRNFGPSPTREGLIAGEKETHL
Experimental: (§1) Based on this finding, only 2 and bicyclo-GABA were further investigated pharmacologically.
(§2) (D–E) Gaddum-Schild analysis of bicyclo-GABA, yielding a Schild slope of 1.02 indicative of competitive inhibition with a calculated K B of 0.47 µM (n = 4). (F) Characterization of bicyclo-GABA and 2 at α1β2γ2 GABAA receptors by use of the FMP assay. […] Data are presented as means ± S.E.M.
Briefly, cells were seeded in white 96-well plates (White Opaque Tissue Culture (TC) plated 96-well Microplate) pre-coated with PDL. Medium was removed on the following day and cells washed with 100 µL/well assay buffer (HBSS supplemented with 20 mM HEPES, 1 mM CaCl2 and 1 mM MgCl2, pH 7.4). […] The cells were washed 3 times with 100 µL/well ice-cold assay buffer, 150 µL/well MicroScint™20 was subsequently added before the plate was shaken for at least 1 h. The plate was counted in a Packard TopCounter microplate scintillation counter (PerkinElmer) for 3 min per well. Typical counts per minute for the different GATs were in the range of: wt hBGT1 (100–4,000), BGT1 Q299 (100–1,000), hBGT E52Y (150–500), BGT1 E52A (150–8,000), BGT1 E52A + Q299L (150–500), wt GAT3 (200–8,000), GAT3 L314Q (100–1,500), wt GAT1 (100–10,000) and wt GAT2 (150–7,500). […] Data presented is the pooled data of at least three independent experiments with three technical replicates if not stated otherwise in figure legends. […]

[2] = tested on: four human GABA transporters (GATs); assay: [3H]GABA uptake assay, single concentration screening at the four human GATs; format: cell-based; settings: 100 µM test compound, n = 2
Experimental: as §1, §2
(§3) Briefly, cells were seeded in white 96-well plates (White Opaque Tissue Culture (TC) plated 96-well Microplate) pre-coated with PDL. Medium was removed on the following day and cells washed with 100 µL/well assay buffer (HBSS supplemented with 20 mM HEPES, 1 mM CaCl2 and 1 mM MgCl2, pH 7.4). […] The cells were washed 3 times with 100 µL/well ice-cold assay buffer, 150 µL/well MicroScint™20 was subsequently added before the plate was shaken for at least 1 h. The plate was counted in a Packard TopCounter microplate scintillation counter (PerkinElmer) for 3 min per well. Typical counts per minute for the different GATs were in the range of: wt hBGT1 (100–4,000), BGT1 Q299 (100–1,000), hBGT E52Y (150–500), BGT1 E52A (150–8,000), BGT1 E52A + Q299L (150–500), wt GAT3 (200–8,000), GAT3 L314Q (100–1,500), wt GAT1 (100–10,000) and wt GAT2 (150–7,500). […] Data presented is the pooled data of at least three independent experiments with three technical replicates if not stated otherwise in figure legends. Concentration–response curves were fitted by non-linear regression to the sigmoidal concentration-response model with GraphPad Prism (version 9.0.0, GraphPad Software, San Diego, CA, United States) as described ([Lie et al., 2020]).

GAT3 L314Q = biological target: T2, GAT3 L314Q (Homo sapiens, UniProt P48066, L314Q); assay: [3H]GABA uptake assay, transient expression in tsA201 cells; format: cell-based; settings: GAT3 L314Q, tsA201 cells; read-out: pIC50 ± S.E.M. (converted)
T2 construct: expressed in transfected cells; host or cells: tsA201 (transformed HEK293), transient
T2 sequence (P48066 1-632 L314Q): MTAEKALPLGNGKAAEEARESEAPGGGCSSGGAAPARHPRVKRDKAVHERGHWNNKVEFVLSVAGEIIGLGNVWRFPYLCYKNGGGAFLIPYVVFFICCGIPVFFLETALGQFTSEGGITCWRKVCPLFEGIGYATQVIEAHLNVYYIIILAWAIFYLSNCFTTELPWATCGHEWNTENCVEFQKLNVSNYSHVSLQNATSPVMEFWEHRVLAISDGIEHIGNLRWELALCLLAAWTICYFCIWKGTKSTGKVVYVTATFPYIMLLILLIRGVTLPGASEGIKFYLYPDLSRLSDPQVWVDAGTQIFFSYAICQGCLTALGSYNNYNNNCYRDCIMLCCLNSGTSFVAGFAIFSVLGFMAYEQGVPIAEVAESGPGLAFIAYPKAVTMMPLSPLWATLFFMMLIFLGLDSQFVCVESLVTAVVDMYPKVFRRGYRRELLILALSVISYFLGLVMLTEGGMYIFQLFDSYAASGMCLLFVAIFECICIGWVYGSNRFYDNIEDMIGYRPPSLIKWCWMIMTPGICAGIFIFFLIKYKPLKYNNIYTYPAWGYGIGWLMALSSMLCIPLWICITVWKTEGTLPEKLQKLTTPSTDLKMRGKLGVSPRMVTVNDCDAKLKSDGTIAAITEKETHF
Source text: According to the docking and MD results, the sidechains of Q299 and E52 were identified to form crucial interactions with the protonated nitrogen of both compounds. The residue Q299 in human BGT1 corresponds to leucine in all other GATs (human, rat, mouse), while E52 corresponds to tyrosine in GAT1 (human, rat, mouse) but is conserved among GAT2, GAT3 and BGT1 (human, rat, mouse) (Figure 6A) ([Kickinger et al., 2019]). Thus, we engineered the corresponding mutants Q299L and E52Y in human BGT1 and predicted that the introduction of these mutations would lead to decreased activity of both bicyclo-GABA and 2 due to the loss of essential hydrogen bond interactions. Furthermore, we wanted to test the double mutant E52Y + Q299L. However, in a previous study this mutant was proven non-functional ([Kickinger et al., 2020]). Instead, we generated the double mutant E52A + Q299L as well as the single mutant E52A. For these mutants we predicted decreased activity. Lastly, the reciprocal mutation to BGT1 Q299L was created in GAT3 (L314Q), ideally expecting a gain-of-function.
FIGURE 6 (A) Pocket alignment of the orthosteric site of the four GAT subtypes colored according to the default ClustalX color scheme ([Larkin et al., 2007]). The pocket was defined as all corresponding GAT residues (15 in total) that are within a distance of 4.5 Å of the co-crystallized ligand leucine in the homologous LeuT crystal structure (PDB ID 2A65) ([Yamashita et al., 2005]) according to the alignment by Kickinger et al. ([Kickinger et al., 2019]). The mutated residues in BGT1 and the corresponding residues in GAT1-3 are indicated by a red box. The numbering of all residues within the orthosteric pocket can be found in the Supplementary Table S1.
(§4) The tsA201 cell line (a transformed HEK293 cell line), the Flp-In CHO cell lines stably expressing human (h) GATs and the HEK293 cell line stably expressing human α1β2γ2 GABAA receptors have been described previously and were cultured accordingly ([Al-Khawaja et al., 2014]; [Falk-Petersen et al., 2020]). The tsA201 cell line used for transient expression of hGATs was transfected with DNA constructs (8 μg per 10 cm plate) using 40 μL PolyFect transfection reagent according to the manufacturer’s protocol (Qiagen). All DNA constructs used have been described previously: wt hBGT1, wt GAT3 ([Kvist et al., 2009]), BGT1 Q299, GAT3 L314Q ([Jørgensen et al., 2017]), hBGT E52Y, BGT1 E52A and BGT1 E52A + Q299L ([Kickinger et al., 2020]).
as §3

BGT1 E52A = biological target: T3, BGT1 E52A (Homo sapiens, UniProt P48065, E52A); assay: as above; format: cell-based; settings: BGT1 E52A vs BGT1 wt
T3 construct: expressed in transfected cells; host or cells: tsA201 (transformed HEK293), transient
T3 sequence (P48065 1-614 E52A): T1 sequence (P48065 1-614) with E52A
Experimental: The residue Q299 in human BGT1 corresponds to leucine in all other GATs (human, rat, mouse), while E52 corresponds to tyrosine in GAT1 (human, rat, mouse) but is conserved among GAT2, GAT3 and BGT1 (human, rat, mouse) (Figure 6A) ([Kickinger et al., 2019]).
as §4, with “(Qiagen).” for “(Qiagen). All DNA constructs used have been described previously: wt hBGT1, wt GAT3 ([Kvist et al., 2009]), BGT1 Q299, GAT3 L314Q ([Jørgensen et al., 2017]), hBGT E52Y, BGT1 E52A and BGT1 E52A + Q299L ([Kickinger et al., 2020]).”
as §3, with “well.” for “well. Typical counts per minute for the different GATs were in the range of: wt hBGT1 (100–4,000), BGT1 Q299 (100–1,000), hBGT E52Y (150–500), BGT1 E52A (150–8,000), BGT1 E52A + Q299L (150–500), wt GAT3 (200–8,000), GAT3 L314Q (100–1,500), wt GAT1 (100–10,000) and wt GAT2 (150–7,500).”

BGT1 [3] = tested on: BGT1; set-up: method as in Kobayashi et al., 2014; settings: ref Kobayashi et al., 2014, cited from earlier work

- inhibition at 100 µM (BGT1 [1]): 68%
SMILES: CC1(CC(=O)O)CC1N (centres unmarked) [4a]

SMILES: CCC1(CC(=O)O)CC1N (centres unmarked) [4b]
- Percentage inhibition of [3H]GABA uptake at any of the GATs [2]: < 15%

SMILES: NC1CC1(CC(=O)O)c1ccccc1 (centres unmarked) [4c]
- Percentage inhibition of [3H]GABA uptake at any of the GATs [2]: < 15%

- IC50 (GAT3 L314Q): 5.01 µM
- Increase in activity compared to wildtype (BGT1 E52A): not significantly altered
SMILES: NCCCC(=O)O [GABA, γ-aminobutyric acid]

SMILES: NC1CC1CC(=O)O [compound 1, (2S,3R)-4-amino-3,4-methanobutyric acid]
- Less potent than bicyclo-GABA (BGT1 [3]): 9 times
- Higher activity for BGT1 than GAT3 (BGT1 [3]; subtype-selectivity BGT1 vs GAT3): three times higher activity

SMILES: CN(C)[C@@]12CC[C@H](C(=O)O)[C@@H]1C2 [compound 3]
- Percentage inhibition of [3H]GABA uptake at any of the GATs [2]: < 15%
